Results reported in publication PMC10244169, “Psychedelics promote plasticity by directly binding to BDNF receptor TrkB” (Nature Neuroscience, 2023).

Legend:
[1] = target: T1, WT:Y433F heterodimers (Y433F^+/−) (Rattus norvegicus, UniProt Q63604, Y433F); assay: Split-luciferase PCA of TrkB dimerization in N2a cells; format: cell-based; conditions: for TrkB dimerization time course, group mean (time 0 = 100): TRKB.Y433F; for TrkB dimerization: WT:Y433F heterodimers; for TrkB dimerization (PCA), group mean (vehicle = 100): Y433F+/-
T1 construct: expressed in transfected cells; host or cells: N2a
T1 sequence (Q63604 32-821 Y433F): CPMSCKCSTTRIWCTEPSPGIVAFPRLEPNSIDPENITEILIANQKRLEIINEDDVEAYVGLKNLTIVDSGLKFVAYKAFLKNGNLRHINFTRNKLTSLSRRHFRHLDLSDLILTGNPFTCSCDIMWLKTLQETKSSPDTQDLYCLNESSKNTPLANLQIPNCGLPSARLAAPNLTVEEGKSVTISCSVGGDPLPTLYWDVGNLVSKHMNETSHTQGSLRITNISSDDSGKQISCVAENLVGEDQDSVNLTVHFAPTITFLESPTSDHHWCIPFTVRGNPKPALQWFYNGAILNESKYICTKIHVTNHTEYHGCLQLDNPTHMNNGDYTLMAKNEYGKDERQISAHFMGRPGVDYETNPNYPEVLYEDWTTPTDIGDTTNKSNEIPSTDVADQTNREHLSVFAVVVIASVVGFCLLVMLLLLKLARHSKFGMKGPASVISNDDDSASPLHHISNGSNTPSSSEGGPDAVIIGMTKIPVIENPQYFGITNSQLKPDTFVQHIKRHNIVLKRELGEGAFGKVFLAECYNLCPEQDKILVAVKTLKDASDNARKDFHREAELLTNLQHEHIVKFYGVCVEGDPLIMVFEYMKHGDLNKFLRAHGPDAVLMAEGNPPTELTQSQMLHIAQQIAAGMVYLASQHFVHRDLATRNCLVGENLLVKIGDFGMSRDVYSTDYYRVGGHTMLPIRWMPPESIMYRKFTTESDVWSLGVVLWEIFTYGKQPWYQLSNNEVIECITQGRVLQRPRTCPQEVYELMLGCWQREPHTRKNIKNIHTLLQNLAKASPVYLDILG
T1 sequence (Q63604 32-821, stated change not applied): as the sequence (Q63604 32-821 Y433F) above, with F402Y counted along it
Method in brief: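 N2a cells transiently co-transfected with split hGLuc-tagged rat TrkB pairs (WT/WT or Y433F/WT) for dimerization; Ketanserin, M100907 or TRKB.FC added 10 min before treatment. Luminescence read after injection of native coelenterazine ([…] final).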

[2] = target: T2, TrkB:PLCγ1 colocalization (Rattus norvegicus, UniProt Q63604); assay: dSTORM/TIRF single-molecule colocalization in dendritic spines of hippocampal neurons; format: cell-based; conditions: 100 nM, 1 h; for Manders colocalization coefficient, group mean (5b) / Manders colocalization coefficient, group mean (5c): averaged per neuron; for Manders colocalization coefficient, group mean (5b): vehicle 0.2835; for Manders colocalization coefficient, group mean (5c): vehicle 0.3968
T2 construct: endogenous in cells; host or cells: rat hippocampal neuronal cultures (DIV21)
T2 sequence (Q63604 32-821): as the sequence (Q63604 32-821 Y433F) above, with F402Y counted along it
Experimental: Then, dishes were fixed with 4% paraformaldehyde (PFA) containing 0.1 µm TetraSpeck beads (Invitrogen, T7279; 1:100). After washing with PBS, dishes were incubated with the blocking buffer (0.1% Triton X-100, 0.05% Tween-20, 10% normal donkey serum, 1% BSA and 0.1% gelatin in PBS) for 1 h at room temperature. Next, dishes were incubated with goat anti-TrkB (R&D Systems, AF1494; 1:100) and rabbit anti-PLCγ1 (Cell Signaling Technologies, 5690S; 1:100) primary antibodies diluted in detergent-free blocking buffer overnight at 4 °C. After washing with PBS, dishes were incubated with Alexa Fluor 647-conjugated donkey anti-goat (Invitrogen, A32849; 1:500) and CF568-conjugated donkey anti-rabbit (Biotium, 20098; 1:500) secondary antibodies in PBS. Dishes were washed and stored in PBS until imaging. For dSTORM/TIRF, we used fresh blinking buffer (0.5 mg ml^−1 glucose oxidase, 40 µg ml^−1 catalase, 10% glucose, 10 mM NaCl, 10 mM cysteamine and 50 mM Tris–HCl, pH 8.0). We used a Nikon Eclipse Ti-E N-STORM/TIRF microscope equipped with an ApoTIRF 100×/1.49 numerical aperture (NA) objective, a Perfect Focus System for Z focus stabilization, an Andor iXon + 897 back-illuminated EMCCD camera (512 × 512), laser lines 405 nm (100 mW), 561 nm (150 mW) and 647 nm (300 mW) and a 405/488/561/647 nm laser quad band filter cube. Image acquisition was performed with the central 256 × 256 pixels and a total of 20,000 frames (exposure time of 15 ms) for both channels using the NIS-Elements Advanced Research software (Nikon). The 405 nm laser was progressively raised to maintain a constant number of localizations per frame. After chromatic aberration correction by correlation with the fluorescent bead fiducials, fitting of the blinking events to build the single-molecule localization coordinate map and drift correction were performed using the Huygens Localizer 21.04 software (Scientific Volume Imaging). Before identifying particles, the first 512 frames of each channel were discarded, a temporal filter length (factor 30) was applied to determine background signal, and data were prefiltered through the standard deviation of a Gaussian filter (σ = 1.0). Next, a threshold calculated from the standard deviation of unfiltered data was multiplied by a factor of 0.75 for the red and 1.5 for the far-red channels and applied to distinguish particles from the background. Pixels from filtered data with values larger than the threshold were considered as candidates for single-molecule localizations. Pixels in filtered data with higher values than surrounding pixels were detected as local maxima. The least-squares fitting was applied for subpixel localization of detected particles, with a fixed full width at half maximum of the Gaussian point spread function of 256 nm. Finally, the resulting single-molecule localization coordinate maps were analyzed with Coloc-Tesseler 1.0 (ref. [79]) by an experimenter blinded to treatment to compute the Manders colocalization coefficients of TrkB (M^TrkB) and PLCγ1 (M^PLCγ1) in dendritic spines on the basis of their overlapping Voronoi diagrams.

SMILES	TrkB dimerization time course, group mean (time 0 = 100) ([1]; time 15)	TrkB dimerization time course, group mean (time 0 = 100) ([1]; time 60)	TrkB dimerization time course, group mean (time 0 = 100) ([1]; time 120)	TrkB dimerization time course, group mean (time 0 = 100) ([1]; time 240)	TrkB dimerization time course, group mean (time 0 = 100) ([1]; time 480)	TrkB dimerization [1]	TrkB dimerization (PCA), group mean (vehicle = 100) ([1]; 1nM)	TrkB dimerization (PCA), group mean (vehicle = 100) ([1]; 10nM)	TrkB dimerization (PCA), group mean (vehicle = 100) ([1]; 100nM)	TrkB dimerization (PCA), group mean (vehicle = 100) ([1]; 1uM)	TrkB:PLCγ1 colocalization in dendritic spines [2]	Manders colocalization coefficient, group mean (5b) [2]	Manders colocalization coefficient, group mean (5c) [2]
CCN(CC)C(=O)C1C=C2c3cccc4[nH]cc(c34)CC2N(C)C1 (stereo not drawn) [LSD, lysergic acid diethylamide]	129.4	136.7	108.3	108.9	60.33	this effect is abolished	113.3	121	118.1	109.7	increase TrkB:PLCγ1 colocalization in dendritic spines	0.6227	0.6899
CN(C)CCc1c[nH]c2cccc(O)c12 [PSI, psilocin]	–	–	–	–	–	this effect is abolished	110.2	90.04	84.39	73.58	increase TrkB:PLCγ1 colocalization in dendritic spines	0.5082	0.7477
